The values that follow come from patent US8338460B2, “2-pyridinecarboxamide derivative having GK-activating effect” (MSD K. K., priority 2006, dated 2012).

Data set [1] concerns the target T1, recombinant human liver GK (Homo sapiens, UniProt P35557).
T1 construct: made in house; host or cells: E. coli
T1 sequence (P35557 1-466 isoform P35557-2): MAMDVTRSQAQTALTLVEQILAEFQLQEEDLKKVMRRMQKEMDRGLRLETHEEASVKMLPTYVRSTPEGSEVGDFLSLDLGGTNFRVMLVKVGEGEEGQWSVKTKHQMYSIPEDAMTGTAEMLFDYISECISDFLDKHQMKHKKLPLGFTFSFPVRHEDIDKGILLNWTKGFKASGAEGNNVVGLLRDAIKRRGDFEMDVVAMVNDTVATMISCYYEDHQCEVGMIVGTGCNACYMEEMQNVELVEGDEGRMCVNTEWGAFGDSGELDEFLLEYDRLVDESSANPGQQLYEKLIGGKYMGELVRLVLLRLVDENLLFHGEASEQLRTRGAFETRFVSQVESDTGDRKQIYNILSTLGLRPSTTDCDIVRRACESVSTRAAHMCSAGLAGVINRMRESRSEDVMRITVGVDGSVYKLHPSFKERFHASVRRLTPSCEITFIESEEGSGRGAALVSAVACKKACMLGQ
In words: Glucokinase-activating effect (Thio-NADH coupled assay with G6PDH). Type of data set: biochemical. The settings on record: 2.5 mM glucose, 30° C. From the text: Pharmacological Experiment 1 (Glucokinase-Activating Effect)
The excellent glucokinase-activating effect of the compounds of formula (I) may be determined by a method described in references (for example, Diabetes, Vol. 45, pp. 1671-1677, 1996), or in accordance with it.
The glucokinase activity may be determined not by directly measuring glucose-6-phosphate but by measuring the level of Thio-NADH, which is produced when a reporter enzyme, glucose-6-phosphate dehydrogenase produces phosphogluconolactone from glucose-6-phosphate, and based on the level, the degree of glucokinase activation by the compound tested may be determined.
In this assay, used was a recombinant human liver GK, which was expressed by E. coli as a FLAG fusion protein therein and was purified by ANTIFLAG M2 AFFINITY GEL (Sigma).
Using a flat-bottomed 96-well plate, the assay was carried out at 30° C. 69 μl of an assay buffer (25 mM Hepes Buffer/pH=7.2, 2 mM MgCl2, 1 mM ATP, 0.5 mM TNAD, 1 mM dithiothreitol) was put into the plate, and 1 μl of a DMSO solution of the compound or DMSO alone as a control was added thereto. Next, 20 μl of an enzyme mixture (FLAG-GK, 20 U/ml G6PDH) cooled in ice was added to it, and 10 μl of a substrate, 25 mM glucose was added to it, and the reaction was initiated (final glucose concentration=2.5 mM).
After the start of the reaction, the increase in the absorbance at 405 nm was measured for 12 minutes at intervals of 30 seconds, and the increase for the first 5 minutes was used for assessing the compound tested. FLAG-GK was added so that the absorbance increase after 5 minutes in the presence of 1% DMSO could be from 0.04 to 0.06.
The OD level of the DMSO control was set as 100%; and the OD level of the test compound at different concentrations was determined. From the OD level at each concentration, Emax (%) and EC50 (μM) were computed and used as the index of the GK-activating potency of the compound.

The next data set relates to Male beagle dogs. In words: Pharmacological test in dog: plasma glucose after oral administration. In kind it is in vivo. The settings on record: AUC for 4 hr after administration, fasted male beagle dogs. On the procedure:
Pharmacological Experiment 2 (Pharmacological Test in Dog)
Male beagle dogs (BW 9.6-13.8 kg) were fasted overnight. Pre-dose blood sampling was performed from cephalic vein. The test drugs, which were suspended into 0.5% methylcellulose, were orally administrated (example 1 at 0.25, 0.5 and 1 mg/kg, and example 4, and compound B at 1 mg/kg). Control group was given 0.5% methylcellulose alone. Blood was taken every 0.5 or 1 hour after the drug dosing. Plasma sample were obtained by centrifugation, and the plasma glucose levels were measured by “Determiner GL-E” (Kyowa Medex Co., Ltd. Japan).

A short description of data set [2]: Comparative test of solubility. In kind it is physicochemical. The settings on record: shaken 75 min; for solubility thermodynamic at 75 min: 200 mM potassium phosphate buffer, pH 7.4, aqueous buffer, read-out: Solibility to 200 mM potassium phosphate buffer; for solubility thermodynamic at 75 min / solubility at 75 min: thermodynamic from solid; for solubility at 75 min: JP-1 artificial gastric fluid, pH 1.2, simulated gastric fluid, JP-1 pH1.2 (artificial gastric fluid), 1 mg in 1 ml. On the procedure: Experiment 3 (Comparative Test of Solubility)
1 mg of compounds were placed in 1 ml of medium (JP-1, […] potassium phosphate buffer) and was shaken on a shaking-incubator for 75 min. (1000 rpm). After centrifugation, concentration of supernatant was analyzed by HPLC.
JP1: pH1.2 (artificial gastric fluid: 35 mM NaCl, 84 mM HCl in water)
2.0 g of NaCl, 7.0 ml of HCl and water were mixed in a measuring flask (1000 ml).
200 mM potassium phosphate buffer: pH7.4
200 mM K2HPO4 and 200 mM KH2PO4 were mixed and adjusted to pH7.4 by using pH meter.

A short description of data set [3]: Comparative test of solubility. Type of data set: physicochemical. The settings on record: water, thermodynamic from solid.

In brackets after ≈: the same amount, converted by molar mass.

For the molecule `CCN1CC(Oc2ccc(Sc3ccc(Sc4nncn4C)nc3C(=O)Nc3nc(C)ns3)cc2)C1` [Example 25, 3-({4-[(1-ethylazetidin-3-yl)oxy]phenyl}thio)-N-(3-methyl-1,2,4-thiadiazol-5-yl)-6-[(4-methyl-4H-1,2,4-triazol-3-yl)thio]pyridine-2-carboxamide], in data set [1], the concentration for a half-maximal effect (EC50) (in general, the concentration that produces a half-maximal response) was found to be 50 nM. Moreover, the “% Reduction of plasma glucose AUC” value with Male beagle dogs (1 mg/kg oral) is 42.1%. Also, the solubility thermodynamic at 75 min in data set [2] (pH7.4, 1 mg in 1 ml) was 13.8 µg/mL (≈ 25.5 µM). Further, the solubility (commonly the dissolved amount per volume that the medium holds) at 75 min in data set [2] is greater than 1000 µg/mL; in data set [3] it was 16.4 µg/mL (≈ 30.3 µM).
Turning to `Cc1nsc(NC(=O)c2nc(Sc3nncn3C)ccc2Sc2ccc(OCCN3CCCCC3)cc2)n1` [Example 26, N-(3-methyl-1,2,4-thiadiazol-5-yl)-6-[(4-methyl-4H-1,2,4-triazol-3-yl)thio]-3-{[4-(2-piperidin-1-ylethoxy)phenyl]thio}pyridine-2-carboxamide], the EC50 in data set [1] was 70 nM. For the same molecule, in data set [2] (pH7.4, 1 mg in 1 ml), the solubility thermodynamic at 75 min came to 239 µg/mL (≈ 421 µM). Besides, the solubility at 75 min was greater than 1000 µg/mL in data set [2] and 176 µg/mL (≈ 309 µM) in data set [3].
For `CCN(CC)CCOc1ccc(Sc2ccc(Sc3nncn3C)nc2C(=O)Nc2nc(C)ns2)cc1` [Example 24, 3-({4-[2-(diethylamino)ethoxy]phenyl}thio)-N-(3-methyl-1,2,4-thiadiazol-5-yl)-6-[(4-methyl-4H-1,2,4-triazol-3-yl)thio]pyridine-2-carboxamide], the EC50 in data set [1] worked out at 40 nM. For the same molecule, in data set [2] (pH7.4, 1 mg in 1 ml), the solubility thermodynamic at 75 min came to 298 µg/mL (≈ 536 µM). The solubility at 75 min is greater than 1000 µg/mL in data set [2] and 230 µg/mL (≈ 414 µM) in data set [3].
Take `Cc1nsc(NC(=O)c2nc(Sc3nnc[nH]3)ccc2Sc2ccc(OCCN(C)C)cc2)n1` [Compound (B), reference compound]: the “% Reduction of plasma glucose AUC” value with Male beagle dogs (1 mg/kg oral) is 7.4%.
With `Cc1nsc(NC(=O)c2nc(Sc3nncn3C)ccc2Sc2ccc(CCO)cc2)n1` [(A), reference compound], the solubility thermodynamic at 75 min in data set [2] (pH7.4, 1 mg in 1 ml) worked out at 3.4 µg/mL (≈ 7 µM). The solubility at 75 min in data set [2] is 6.2 µg/mL (≈ 12.8 µM); in data set [3] it was 2.4 µg/mL (≈ 4.94 µM).
`Cc1nsc(NC(=O)c2nc(Sc3nncn3C)ccc2Sc2ccc(OCCN(C)C)cc2)n1` [Example 1, 3-({4-[2-(dimethylamino)ethoxy]phenyl}thio)-N-(3-methyl-1,2,4-thiadiazol-5-yl)-6-[(4-methyl-4H-1,2,4-triazol-3-yl)thio]pyridine-2-carboxamide]: the EC50 in data set [1] came out at 90 nM. Besides, the “% Reduction of plasma glucose AUC” value in the data set with Male beagle dogs (0.25 mg/kg oral) is recorded as 7.9%; in the data set with Male beagle dogs (0.5 mg/kg oral) it was 10.6%; in the data set with Male beagle dogs (1 mg/kg oral) it was 15.7%. In data set [2] (pH7.4, 1 mg in 1 ml), the solubility thermodynamic at 75 min stood at 17.5 µg/mL (≈ 33.1 µM). Moreover, the solubility at 75 min was greater than 1000 µg/mL in data set [2] and 15.2 µg/mL (≈ 28.8 µM) in data set [3].
Take `Cc1nsc(NC(=O)c2nc(Sc3nncn3C)ccc2Sc2ccc(OCCN3CCC[C@H]3C)cc2)n1` [Example 4]: in data set [1], the EC50 stood at 150 nM. Further, the “% Reduction of plasma glucose AUC” value in the data set with Male beagle dogs (1 mg/kg oral) is 26.8%. Also, the solubility at 75 min in data set [2] is greater than 1000 µg/mL; in data set [3], 47.4 µg/mL (≈ 83.3 µM). Moreover, in data set [2] (pH7.4, 1 mg in 1 ml), the “Solibility to 200 mM potassium phosphate buffer” value worked out at 47.3 µg/mL.
As to `Cc1nsc(NC(=O)c2nc(Sc3nncn3C)ccc2Sc2ccc(O[C@@H]3CCN(C(C)C)C3)cc2)n1` [Example 20, 3-[(4-{[(3R)-1-isopropylpyrrolidin-3-yl]oxy}phenyl)thio]-N-(3-methyl-1,2,4-thiadiazol-5-yl)-6-[(4-methyl-4H-1,2,4-triazol-3-yl)thio]pyridine-2-carboxamide], the EC50 in data set [1] is 40 nM. Besides, the maximum response (Emax) – broadly, the greatest response seen or fitted, relative to the assay's reference – in data set [1] (OD level of DMSO control set as 100%) amounted to 964%. Further, the solubility thermodynamic at 75 min in data set [2] (pH7.4, 1 mg in 1 ml) came out at 86.8 µg/mL (≈ 153 µM). Further, the solubility at 75 min in data set [2] was greater than 1000 µg/mL; in data set [3], 127 µg/mL (≈ 223 µM).
As to `CCN(C)CCOc1ccc(Sc2ccc(Sc3nncn3C)nc2C(=O)Nc2nc(C)ns2)cc1` [Example 23, 3-[(4-{2-[ethyl(methyl)amino]ethoxy}phenyl)thio]-N-(3-methyl-1,2,4-thiadiazol-5-yl)-6-[(4-methyl-4H-1,2,4-triazol-3-yl)thio]pyridine-2-carboxamide], the EC50 in data set [1] was determined as 60 nM. In addition, in data set [2] (pH7.4, 1 mg in 1 ml), the solubility thermodynamic at 75 min is 122 µg/mL (≈ 226 µM). The solubility at 75 min in data set [2] is greater than 1000 µg/mL; in data set [3], 208 µg/mL (≈ 383 µM).
The matching figures for `Cc1nsc(NC(=O)c2nc(Sc3nncn3C)ccc2Sc2ccc(OC[C@@H]3CCCN3C)cc2)n1` [Example 7, 3-[(4-{[(2S)-1-methylpyrrolidin-2-yl]methoxy}phenyl)thio]-N-(3-methyl-1,2,4-thiadiazol-5-yl)-6-[(4-methyl-4H-1,2,4-triazol-3-yl)thio]pyridine-2-carboxamide]: 60 nM, 308 µg/mL (≈ 555 µM), greater than 1000 µg/mL and 583 µg/mL (≈ 1050 µM).
